Assay results as given in PMC10648541, “Design, Synthesis, and Antiproliferative Activity of Selective Histone Deacetylases 6 Inhibitors Containing a Tetrahydropyridopyrimidine Scaffold” (Molecules, 2023).
Entries after “also recorded” stand apart in the source; their conditions may differ.

What was measured:
[1] = system: MALME-3M; assay: NCI-60 antiproliferative screening, MALME-3M; assay type: cell-based; conditions: Homo sapiens, MALME-3M (Melanoma), read-out: Inhibition% values at 10 μM concentration
Description: (§1) Then, 8f was submitted to NCI for antiproliferative evaluation against 59 different tumor cell lines. The cancer types of the NCI-60 program include leukemia, non-small cell lung cancer (NSCLC), colon cancer, CNS cancer, melanoma, ovary cancer, renal cancer, prostate cancer, and breast cancer.

[2] = system: M14; assay: NCI-60 antiproliferative screening, M14; assay type: cell-based; conditions: Homo sapiens, M14 (Melanoma), read-out: Inhibition% values at 10 μM concentration
Description: as §1

[3] = system: U251; assay: NCI-60 antiproliferative screening, U251; assay type: cell-based; conditions: Homo sapiens, U-251, U251 (CNS Cancer), read-out: Inhibition% values at 10 μM concentration
Description: as §1

[4] = target: T1, HDAC8 (Homo sapiens, UniProt Q9BY41); assay: In vitro HDAC enzyme assay (Reaction Biology Corporation), HDAC8; assay type: biochemical; conditions: Table 2 isozyme screen; duplicate, SD < 15%
T1 construct: purchased Reaction Biology Corporation

[5] = system: RPMI-8226; assay: NCI-60 antiproliferative screening, RPMI-8226; assay type: cell-based; conditions: Homo sapiens, RPMI-8226 (Leukemia), read-out: Inhibition% values at 10 μM concentration
Description: as §1

[6] = target: T2, HDAC2 (Homo sapiens, UniProt Q92769); assay: In vitro HDAC enzyme assay (Reaction Biology Corporation), HDAC2; assay type: biochemical; conditions: Table 2 isozyme screen; duplicate, SD < 15%
T2 construct: purchased Reaction Biology Corporation

[7] = system: NCI-H522; assay: NCI-60 antiproliferative screening, NCI-H522; assay type: cell-based; conditions: Homo sapiens, NCI-H522 (Non-Small Cell Lung Cancer), read-out: Inhibition% values at 10 μM concentration
Description: as §1

[8] = system: UACC-62; assay: NCI-60 antiproliferative screening, UACC-62; assay type: cell-based; conditions: Homo sapiens, UACC-62 (Melanoma), read-out: Inhibition% values at 10 μM concentration
Description: as §1

[9] = target: T3, HDAC4 (Homo sapiens, UniProt P56524); assay: In vitro HDAC enzyme assay (Reaction Biology Corporation), HDAC4; assay type: biochemical; conditions: Table 2 isozyme screen; duplicate, SD < 15%
T3 construct: purchased Reaction Biology Corporation

[10] = system: MDA-MB-468; assay: NCI-60 antiproliferative screening, MDA-MB-468; assay type: cell-based; conditions: Homo sapiens, MDA-MB-468 (Breast Cancer), read-out: Inhibition% values at 10 μM concentration
Description: as §1

[11] = system: 59 different tumor cell lines; assay: NCI-60 antiproliferative evaluation, whole panel; assay type: cell-based; conditions: 10 μM, of 59 tumor cell lines
Description: as §1

[12] = system: 786-0; assay: NCI-60 antiproliferative screening, 786-0; assay type: cell-based; conditions: Homo sapiens, 786-0 (Renal Cancer), read-out: Inhibition% values at 10 μM concentration
Description: as §1

[13] = system: SK-MEL-2; assay: NCI-60 antiproliferative screening, SK-MEL-2; assay type: cell-based; conditions: Homo sapiens, SK-MEL-2 (Melanoma), read-out: Inhibition% values at 10 μM concentration
Description: as §1

[14] = system: MDA-MB-231/ATCC; assay: NCI-60 antiproliferative screening, MDA-MB-231/ATCC; assay type: cell-based; conditions: Homo sapiens, MDA-MB-231/ATCC (Breast Cancer), read-out: Inhibition% values at 10 μM concentration
Description: as §1

[15] = system: HCT116; assay: Antiproliferative assay (Alamar blue, 72 h), HCT116; assay type: cell-based; conditions: Homo sapiens, HCT-116, HCT116 cells, three independent experiments, SD < 10%, read-out: Antiproliferative effect IC50, HCT116
[16] = system: SNB-75; assay: NCI-60 antiproliferative screening, SNB-75; assay type: cell-based; conditions: Homo sapiens, SNB-75 (CNS Cancer), read-out: Inhibition% values at 10 μM concentration
Description: as §1

[17] = target: T4, HDAC3 (Homo sapiens, UniProt O15379); assay: In vitro HDAC enzyme assay (Reaction Biology Corporation), HDAC3; assay type: biochemical; conditions: Table 2 isozyme screen; duplicate, SD < 15%
T4 construct: purchased Reaction Biology Corporation

[18] = system: HCC-2998; assay: NCI-60 antiproliferative screening, HCC-2998; assay type: cell-based; conditions: Homo sapiens, HCC-2998 (Colon Cancer), read-out: Inhibition% values at 10 μM concentration
Description: as §1

[19] = system: NCI-H23; assay: NCI-60 antiproliferative screening, NCI-H23; assay type: cell-based; conditions: Homo sapiens, NCI-H23 (Non-Small Cell Lung Cancer), read-out: Inhibition% values at 10 μM concentration
Description: as §1

[20] = system: acetylated α-tubulin; assay: Western blot, acetylated α-tubulin in RPMI-8226 cells; assay type: cell-based, human; conditions: 24 h, 1, 5, and 10 μM
Description: (§2) RPMI-8226 cells (1 × 10^6) were seeded overnight and incubated with compound 8f for 24 h on indicated concentrations. Cell extract was prepared by lysing cultured cells with a mammalian protein extraction reagent supplemented with EDTA-free protease inhibitor for 15 min. SDS-PAGE and immunoblot analysis were conducted as described. Antibodies for Ac-H3 (abcom, AB32129) and Ac-ɑ-tubulin (Cell Signaling, 2144) were used.

[21] = target: T5, HDAC1 (Homo sapiens, UniProt Q13547); assay: In vitro HDAC enzyme assay (Reaction Biology Corporation), HDAC1; assay type: biochemical; conditions: Table 1; duplicate, SD < 15%
T5 construct: purchased Reaction Biology Corporation

[22] = system: HCT-116; assay: NCI-60 antiproliferative screening, HCT-116; assay type: cell-based; conditions: Homo sapiens, HCT-116 (Colon Cancer), read-out: Inhibition% values at 10 μM concentration
Description: as §1

[23] = system: T-47D; assay: NCI-60 antiproliferative screening, T-47D; assay type: cell-based; conditions: Homo sapiens, T47D, T-47D (Breast Cancer), read-out: Inhibition% values at 10 μM concentration
Description: as §1

[24] = system: HL60; assay: Antiproliferative assay (Alamar blue, 72 h), HL60; assay type: cell-based; conditions: Homo sapiens, HL-60, HL60 cells, three independent experiments, SD < 10%, read-out: Antiproliferative effect IC50, HL60
[25] = system: SN12C; assay: NCI-60 antiproliferative screening, SN12C; assay type: cell-based; conditions: Homo sapiens, SN12C (Renal Cancer), read-out: Inhibition% values at 10 μM concentration
Description: as §1

[26] = system: NCI-H322M; assay: NCI-60 antiproliferative screening, NCI-H322M; assay type: cell-based; conditions: Homo sapiens, NCI-H322M (Non-Small Cell Lung Cancer), read-out: Inhibition% values at 10 μM concentration
Description: as §1

[27] = system: SF-268; assay: NCI-60 antiproliferative screening, SF-268; assay type: cell-based; conditions: Homo sapiens, SF-268 (CNS Cancer), read-out: Inhibition% values at 10 μM concentration
Description: as §1

[28] = system: acetylated histone 3 (H3); assay: Western blot, acetylated histone 3 in RPMI-8226 cells; assay type: cell-based, human; conditions: 24 h, 1, 5, and 10 μM
Description: as §2

[29] = system: SK-MEL-28; assay: NCI-60 antiproliferative screening, SK-MEL-28; assay type: cell-based; conditions: Homo sapiens, SK-MEL-28 (Melanoma), read-out: Inhibition% values at 10 μM concentration
Description: as §1

T1 sequence (Q9BY41 whole entry): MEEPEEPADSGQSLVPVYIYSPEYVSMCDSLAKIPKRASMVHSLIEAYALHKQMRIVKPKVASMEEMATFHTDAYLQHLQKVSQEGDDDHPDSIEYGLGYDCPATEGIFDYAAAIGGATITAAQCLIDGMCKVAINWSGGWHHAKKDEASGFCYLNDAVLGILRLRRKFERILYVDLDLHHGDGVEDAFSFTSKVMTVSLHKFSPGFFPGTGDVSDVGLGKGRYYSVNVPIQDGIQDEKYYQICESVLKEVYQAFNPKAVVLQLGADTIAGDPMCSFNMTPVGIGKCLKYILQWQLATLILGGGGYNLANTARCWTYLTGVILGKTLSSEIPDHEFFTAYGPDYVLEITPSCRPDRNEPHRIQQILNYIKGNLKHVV
T3 sequence (P56524 whole entry): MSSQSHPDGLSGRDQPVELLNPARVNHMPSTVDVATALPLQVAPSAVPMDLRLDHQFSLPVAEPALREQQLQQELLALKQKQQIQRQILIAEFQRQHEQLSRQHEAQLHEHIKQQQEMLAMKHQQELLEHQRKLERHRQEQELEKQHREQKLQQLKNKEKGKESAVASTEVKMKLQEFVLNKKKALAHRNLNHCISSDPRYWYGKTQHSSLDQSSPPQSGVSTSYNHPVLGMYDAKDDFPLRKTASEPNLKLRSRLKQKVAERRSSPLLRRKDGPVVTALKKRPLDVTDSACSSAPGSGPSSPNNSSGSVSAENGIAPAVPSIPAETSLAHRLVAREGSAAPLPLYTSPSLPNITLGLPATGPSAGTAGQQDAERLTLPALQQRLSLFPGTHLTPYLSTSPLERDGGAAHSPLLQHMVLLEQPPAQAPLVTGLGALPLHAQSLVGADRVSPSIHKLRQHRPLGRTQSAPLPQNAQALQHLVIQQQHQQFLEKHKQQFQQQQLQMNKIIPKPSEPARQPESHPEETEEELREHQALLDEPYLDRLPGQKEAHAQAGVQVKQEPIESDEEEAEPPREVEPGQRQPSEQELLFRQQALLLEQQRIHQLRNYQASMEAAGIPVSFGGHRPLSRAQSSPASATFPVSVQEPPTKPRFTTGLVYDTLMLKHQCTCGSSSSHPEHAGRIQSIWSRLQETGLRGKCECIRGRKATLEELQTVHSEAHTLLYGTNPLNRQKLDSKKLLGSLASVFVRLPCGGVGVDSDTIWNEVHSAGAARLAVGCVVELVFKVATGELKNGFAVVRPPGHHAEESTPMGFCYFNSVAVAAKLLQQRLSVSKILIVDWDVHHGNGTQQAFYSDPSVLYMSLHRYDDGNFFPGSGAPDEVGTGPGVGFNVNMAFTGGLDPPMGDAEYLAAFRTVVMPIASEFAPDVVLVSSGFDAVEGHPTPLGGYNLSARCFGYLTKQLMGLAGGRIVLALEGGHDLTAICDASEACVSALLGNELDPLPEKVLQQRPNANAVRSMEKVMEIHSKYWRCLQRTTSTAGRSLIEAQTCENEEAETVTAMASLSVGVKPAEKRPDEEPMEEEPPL
T5 sequence (Q13547 whole entry): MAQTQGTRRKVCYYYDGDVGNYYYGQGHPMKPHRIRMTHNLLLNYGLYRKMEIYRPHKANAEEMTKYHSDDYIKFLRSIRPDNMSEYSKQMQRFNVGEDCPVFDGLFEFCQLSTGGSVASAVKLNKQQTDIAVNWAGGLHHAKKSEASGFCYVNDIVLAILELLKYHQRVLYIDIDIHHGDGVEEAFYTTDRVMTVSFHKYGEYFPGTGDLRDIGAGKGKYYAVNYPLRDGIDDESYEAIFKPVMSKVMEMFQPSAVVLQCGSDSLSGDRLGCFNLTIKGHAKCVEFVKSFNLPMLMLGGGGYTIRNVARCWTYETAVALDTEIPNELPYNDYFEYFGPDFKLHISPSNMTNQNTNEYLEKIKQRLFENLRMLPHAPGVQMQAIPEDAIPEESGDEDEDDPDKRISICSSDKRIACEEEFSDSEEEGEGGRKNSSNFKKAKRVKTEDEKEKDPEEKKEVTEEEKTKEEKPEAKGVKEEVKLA
T2 sequence (Q92769 whole entry): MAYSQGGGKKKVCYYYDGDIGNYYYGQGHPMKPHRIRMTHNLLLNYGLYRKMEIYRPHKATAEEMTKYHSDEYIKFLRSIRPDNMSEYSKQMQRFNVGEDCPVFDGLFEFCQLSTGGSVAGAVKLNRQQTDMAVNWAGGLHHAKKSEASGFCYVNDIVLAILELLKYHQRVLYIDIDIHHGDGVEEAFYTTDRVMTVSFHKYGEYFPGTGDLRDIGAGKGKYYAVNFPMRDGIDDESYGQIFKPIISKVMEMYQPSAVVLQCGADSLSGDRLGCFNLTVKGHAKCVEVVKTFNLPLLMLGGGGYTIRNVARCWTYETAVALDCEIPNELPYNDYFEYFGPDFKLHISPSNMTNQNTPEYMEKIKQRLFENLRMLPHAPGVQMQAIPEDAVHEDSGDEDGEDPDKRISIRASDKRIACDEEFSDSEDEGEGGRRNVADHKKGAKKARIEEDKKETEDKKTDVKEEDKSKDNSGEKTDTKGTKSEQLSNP
T4 sequence (O15379 whole entry): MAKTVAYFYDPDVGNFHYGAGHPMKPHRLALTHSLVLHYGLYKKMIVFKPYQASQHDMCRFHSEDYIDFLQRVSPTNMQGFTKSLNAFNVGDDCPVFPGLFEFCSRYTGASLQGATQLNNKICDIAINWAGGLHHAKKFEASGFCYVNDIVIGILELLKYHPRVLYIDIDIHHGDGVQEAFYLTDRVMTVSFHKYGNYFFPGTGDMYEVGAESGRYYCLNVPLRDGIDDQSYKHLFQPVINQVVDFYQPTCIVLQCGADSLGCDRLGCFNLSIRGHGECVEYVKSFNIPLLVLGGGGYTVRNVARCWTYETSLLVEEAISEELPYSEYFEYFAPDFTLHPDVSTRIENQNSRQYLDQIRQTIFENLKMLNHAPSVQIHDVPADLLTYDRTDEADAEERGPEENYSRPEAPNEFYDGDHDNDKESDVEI
T4 sequence (Q9Y618 395-489 partner limits assumed): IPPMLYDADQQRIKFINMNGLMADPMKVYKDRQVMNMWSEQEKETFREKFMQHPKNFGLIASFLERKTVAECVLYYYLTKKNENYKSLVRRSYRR

- HDAC8 IC50 [4]: poor activity
- IC50 [4]: 510 nM
- IC50 [6]: 390 nM
- HDAC4 IC50 [9]: poor activity
- IC50 [9]: > 10000 nM
- IC50 [15]: 3250 nM
- IC50 [17]: 411 nM
- IC50 [21]: 308 nM
- IC50 [24]: 3200 nM
Compound: COc1cccc(-c2nc3c(c(-c4cccc(OC)c4)n2)CCN(C(=O)CCCCCCC(=O)NO)C3)c1 [Compound 8f, 8-(2,4-Bis(3-methoxyphenyl)-5,8-dihydropyrido [3,4-d]pyrimidin-7(6H)-yl)-N-hydroxy-8-oxooctanamide]
- inhibition at 10 µM [1]: 100%
- inhibition at 10 µM [2]: 90.5%
- inhibition at 10 µM [3]: 100%
- inhibition at 10 µM [5]: 88.7%
- inhibition at 10 µM [7]: 69.1%
- inhibition at 10 µM [8]: 100%
- inhibition at 10 µM [10]: 100%
- number of cell lines with percent inhibitions > 80% [11]: 56 cell lines
- inhibition at 10 µM [12]: 89.1%
- inhibition at 10 µM [13]: 100%
- inhibition at 10 µM [14]: 100%
- inhibition at 10 µM [16]: 71%
- inhibition at 10 µM [18]: 100%
- inhibition at 10 µM [19]: 100%
- levels of acetylated α-tubulin [20]: increase the levels of acetylated α-tubulin in a dose-dependent manner; also recorded: elevated the levels of acetylated α-tubulin in a dose-dependent manner
- inhibition at 10 µM [22]: 96%
- inhibition at 10 µM [23]: 100%
- inhibition at 10 µM [25]: 100%
- inhibition at 10 µM [26]: 89%
- inhibition at 10 µM [27]: 92.2%
- levels of acetylated histone 3 (H3) [28]: only modest changes
- inhibition at 10 µM [29]: 100%
